Values after ≈ are worked out from the molar mass of the structure shown. Structures can show the parent of a compound that is named as a salt. Each block holds one compound with its values, some of them ahead of it.
What was measured:
Type in all cases: physicochemical
[1] = Long-term stability of batches having differing chloride contents, % increase in total impurities
Procedure: The long-term stability of three separate batches of anamorelin monohydrochloride (or composition comprising anamorelin monohydrochloride) having differing chloride contents were evaluated for stability at 25° C./60% relative humidity for one, two and three years, and 40° C./75% relative humidity for one, three and six months. The results are presented below in Table 3C. % Increase in Table 3C was calculated by the following formula. % Increase=(M−I)/I×100
I: initial total impurity (%)
M: measured total impurity (%) at specific time (e.g., 3 months, 6 month and so forth)

[2] = Stability testing for anamorelin dihydrochloride relative to the monohydrochloride and free base at 40° C./75% relative humidity
Procedure: Stability testing for anamorelin dihydrochloride relative to the monohydrochloride and anamorelin free base at 40° C./75% relative humidity is reported below in Table 3D. For the anamorelin dihydrochloride preparation, anamorelin free base was dissolved in ethyl acetate and a molar excess of hydrochloric acid in ethyl acetate was added into the mixture to precipitate anamorelin dihydrochloride. The resulting anamorelin dihydrochloride was filtered and dried (chloride content approximately 12.2%). HPLC Area % in Table 3D refers to the amount of converted value of anamorelin free base in samples.

[3] = Solubility test in distilled water (HPLC); settings: distilled water (initial pH 7)
Procedure: A solution of standard curve was prepared to 356 μmol/L by diluting standard substance (anamorelin free base (quantitative value: 93.90%), 86.6 mmol/L, isopropyl acetate solution) with acetonitrile. In addition, a sample solution was prepared according to the process that test compound (about 100 mg) added into distilled water (10.00 g), the solution was mixed for 10 minutes at 50° C. and then was placed overnight, obtained suspension was filtered by syringe with filter (0.2 μm) and the filtrate (48.93 mg) was diluted with acetonitrile (10 mL). A solution of standard curve and a sample solution (each 5 μL) were determined by injecting into HPLC (GULLIVER1500 HPLC system, JASCO Corporation).

[4] = Stability testing of spray dried amorphous anamorelin monohydrochloride (Batch A), purity and impurities by HPLC; set-up: Impurity 1 / Impurity 2 / Impurity 3 / Impurity 4 / Impurity 5 / Impurity 6 / Impurity 7: unit not given here
Procedure: The purity of the anamorelin monohydrochloride (or composition comprising anamorelin monohydrochloride) was measured using high performance liquid chromatograph (HPLC) (Hewlett-Packard HP 1100 HPLC System, Agilent Technologies Inc.). The concentrated aqueous solution of anamorelin monohydrochloride A of example 1 was concentrated by spray drying using Niro QSD-3.6 (trade mark, GEA process engineering Inc.) to afford anamorelin monohydrochloride referred to as Batch A in Tables 2A and 2B) in an amorphous state. RRT refers to the relative retention time of the impurity versus anamorelin. In addition, the purity was converted into the amount of anamorelin free base within a sample without any other organic solvent since anamorelin monohydrochloride (or composition comprising anamorelin monohydrochloride) was dissolved in the solvent to be measured by HPLC condition.

Compound: CN(C)N(C)C(=O)[C@@]1(Cc2ccccc2)CCCN(C(=O)[C@@H](Cc2c[nH]c3ccccc23)NC(=O)C(C)(C)N)C1 [5.6%]
% Increase in Total Impurities From T0 ([1]; 25° C./60% RH, 1 Y): 10%
% Increase in Total Impurities From T0 ([1]; 25° C./60% RH, 2 Y): 48%
% Increase in Total Impurities From T0 ([1]; 25° C./60% RH, 3 Y): 29%

Compound: CN(C)N(C)C(=O)[C@@]1(Cc2ccccc2)CCCN(C(=O)[C@@H](Cc2c[nH]c3ccccc23)NC(=O)C(C)(C)N)C1 [5.9%]
% Increase in Total Impurities From T0 ([1]; 25° C./60% RH, 1 Y): 0%
% Increase in Total Impurities From T0 ([1]; 25° C./60% RH, 2 Y): 20%
% Increase in Total Impurities From T0 ([1]; 25° C./60% RH, 3 Y): 20%
% Increase in Total Impurities From T0 ([1]; 40° C./75% RH, 1 M): 0%
% Increase in Total Impurities From T0 ([1]; 40° C./75% RH, 3 M): 21%
% Increase in Total Impurities From T0 ([1]; 40° C./75% RH, 6 M): 17%

Compound: CN(C)N(C)C(=O)[C@@]1(Cc2ccccc2)CCCN(C(=O)[C@@H](Cc2c[nH]c3ccccc23)NC(=O)C(C)(C)N)C1 [6.2%]
% Increase in Total Impurities From T0 ([1]; 25° C./60% RH, 1 Y): 85%
% Increase in Total Impurities From T0 ([1]; 25° C./60% RH, 2 Y): 114%
% Increase in Total Impurities From T0 ([1]; 25° C./60% RH, 3 Y): 100%
% Increase in Total Impurities From T0 ([1]; 40° C./75% RH, 1 M): 107%
% Increase in Total Impurities From T0 ([1]; 40° C./75% RH, 3 M): 100%
% Increase in Total Impurities From T0 ([1]; 40° C./75% RH, 6 M): 171%

Compound: CN(C)N(C)C(=O)[C@@]1(Cc2ccccc2)CCCN(C(=O)[C@@H](Cc2c[nH]c3ccccc23)NC(=O)C(C)(C)N)C1 [6.3%]
% Increase in Total Impurities From T0 ([1]; 25° C./60% RH, 1 Y): 200%
% Increase in Total Impurities From T0 ([1]; 25° C./60% RH, 2 Y): 340%
% Increase in Total Impurities From T0 ([1]; 25° C./60% RH, 3 Y): 360%
% Increase in Total Impurities From T0 ([1]; 40° C./75% RH, 1 M): 140%
% Increase in Total Impurities From T0 ([1]; 40° C./75% RH, 3 M): 400%
% Increase in Total Impurities From T0 ([1]; 40° C./75% RH, 6 M): 500%

Compound: CN(C)N(C)C(=O)[C@@]1(Cc2ccccc2)CCCN(C(=O)[C@@H](Cc2c[nH]c3ccccc23)NC(=O)C(C)(C)N)C1 [Anamorelin Di-HCl, reference compound]
HPLC Area % ([2]; 1M): 98.2%
HPLC Area % ([2]; 3M): 97.1%
HPLC Area % ([2]; I.T.): 98.9%
long-term stability (in words) ([2]; relative to the monohydrochloride): easy to be changed

Compound: CN(C)N(C)C(=O)[C@@]1(Cc2ccccc2)CCCN(C(=O)[C@@H](Cc2c[nH]c3ccccc23)NC(=O)C(C)(C)N)C1 [Anamorelin Free Base, (3R)1-(2-methylalanyl-D-tryptophyl)-3-(phenylmethyl)-3-piperidinecarboxylic acid 1,2,2trimethylhydrazide]
HPLC Area % ([2]; 1M): 99.9%
HPLC Area % ([2]; 3M): 99.7%
HPLC Area % ([2]; I.T.): 99.7%
solubility [3]: 0.04 mg/mL (≈ 73.2 µM)

Next, values leading:

stability (in words) ([4]; six months under each set of conditions): nearly unchanged
long-term stability (in words) ([1]; three years, 25° C./60% RH): nearly unchanged
HPLC Area % ([2]; 1M, listed as Anamorelin Mono-HCl): 99.3%
HPLC Area % ([2]; 3M, listed as Anamorelin Mono-HCl): 99.2%
HPLC Area % ([2]; I.T., listed as Anamorelin Mono-HCl): 99.9%
solubility [3]: >333 mg/mL
Compound: CN(C)N(C)C(=O)[C@@]1(Cc2ccccc2)CCCN(C(=O)[C@@H](Cc2c[nH]c3ccccc23)NC(=O)C(C)(C)N)C1 [anamorelin monohydrochloride]

Impurity 1 ([4]; 25° C./60% RH, 1 month): <0.05
Impurity 2 ([4]; 25° C./60% RH, 1 month): <0.05
Impurity 3 ([4]; 25° C./60% RH, 1 month): <0.05
Impurity 4 ([4]; 25° C./60% RH, 1 month): <0.05
Impurity 5 ([4]; 25° C./60% RH, 1 month): <0.05
Impurity 6 ([4]; 25° C./60% RH, 1 month): <0.05
Impurity 7 ([4]; 25° C./60% RH, 1 month): <0.05
anamorelin (HPLC purity) ([4]; 25° C./60% RH, 1 month): 100.0%
Impurity 1 ([4]; 25° C./60% RH, 3 months): <0.05
Impurity 2 ([4]; 25° C./60% RH, 3 months): <0.05
Impurity 3 ([4]; 25° C./60% RH, 3 months): <0.05
Impurity 4 ([4]; 25° C./60% RH, 3 months): <0.05
Impurity 5 ([4]; 25° C./60% RH, 3 months): <0.05
Impurity 6 ([4]; 25° C./60% RH, 3 months): <0.05
Impurity 7 ([4]; 25° C./60% RH, 3 months): <0.05
anamorelin (HPLC purity) ([4]; 25° C./60% RH, 3 months): 100.0%
Impurity 1 ([4]; 25° C./60% RH, 6 months): <0.05
Impurity 2 ([4]; 25° C./60% RH, 6 months): <0.05
Impurity 3 ([4]; 25° C./60% RH, 6 months): <0.05
Impurity 4 ([4]; 25° C./60% RH, 6 months): <0.05
Impurity 5 ([4]; 25° C./60% RH, 6 months): <0.05
Impurity 6 ([4]; 25° C./60% RH, 6 months): <0.05
Impurity 7 ([4]; 25° C./60% RH, 6 months): <0.05
anamorelin (HPLC purity) ([4]; 25° C./60% RH, 6 months): 100.0%
Impurity 1 ([4]; 40° C./75% RH, 1 month): <0.05
Impurity 2 ([4]; 40° C./75% RH, 1 month): <0.05
Impurity 3 ([4]; 40° C./75% RH, 1 month): <0.05
Impurity 4 ([4]; 40° C./75% RH, 1 month): <0.05
Impurity 5 ([4]; 40° C./75% RH, 1 month): <0.05
Impurity 6 ([4]; 40° C./75% RH, 1 month): <0.05
Impurity 7 ([4]; 40° C./75% RH, 1 month): <0.05
anamorelin (HPLC purity) ([4]; 40° C./75% RH, 1 month): 100.0%
Impurity 1 ([4]; 40° C./75% RH, 3 months): <0.05
Impurity 2 ([4]; 40° C./75% RH, 3 months): <0.05
Impurity 3 ([4]; 40° C./75% RH, 3 months): <0.05
Impurity 4 ([4]; 40° C./75% RH, 3 months): <0.05
Impurity 5 ([4]; 40° C./75% RH, 3 months): <0.05
Impurity 6 ([4]; 40° C./75% RH, 3 months): <0.05
Impurity 7 ([4]; 40° C./75% RH, 3 months): <0.05
anamorelin (HPLC purity) ([4]; 40° C./75% RH, 3 months): 100.0%
Impurity 1 ([4]; 40° C./75% RH, 6 months): <0.05
Impurity 2 ([4]; 40° C./75% RH, 6 months): <0.05
Impurity 3 ([4]; 40° C./75% RH, 6 months): <0.05
Impurity 4 ([4]; 40° C./75% RH, 6 months): <0.05
Impurity 5 ([4]; 40° C./75% RH, 6 months): <0.05
Impurity 6 ([4]; 40° C./75% RH, 6 months): <0.05
Impurity 7 ([4]; 40° C./75% RH, 6 months): <0.05
anamorelin (HPLC purity) ([4]; 40° C./75% RH, 6 months): 100.0%
Impurity 1 ([4]; Initial): <0.05
Impurity 2 ([4]; Initial): <0.05
Impurity 3 ([4]; Initial): <0.05
Impurity 4 ([4]; Initial): <0.05
Impurity 5 ([4]; Initial): <0.05
Impurity 6 ([4]; Initial): <0.05
Impurity 7 ([4]; Initial): <0.05
anamorelin (HPLC purity) ([4]; Initial): 100.0%
Compound: CN(C)N(C)C(=O)[C@@]1(Cc2ccccc2)CCCN(C(=O)[C@@H](Cc2c[nH]c3ccccc23)NC(=O)C(C)(C)N)C1 [anamorelin]
